# From US20210002725A1, “METHODS FOR THE DIAGNOSIS OF METABOLIC DISORDERS USING EPIMETABOLIC SHIFTERS, MULTIDIMENSIONAL INTRACELLULAR MOLECULES, OR ENVIRONMENTAL INFLUENCES” (Berg LLC, priority 2009, published 2021)
# How the values were obtained:
# [1] = test system: control and cancer cell lines; test: Sensitivity and apoptotic response of a panel of control and cancer cell lines; format: cell-based; conditions: various levels of Coenzyme Q10
# Method: In a first set of experiments, changes to cell morphology/physiology were evaluated by examining the sensitivy and apoptotic response of cells to CoQ10. […] Exemplary experiments are described in detail in Example 3 below.
# [2] = test system: SCC cells; test: Real-time PCR Apoptosis Array; format: cell-based; conditions: 100 μM Q10
# Excerpt: The control cells were untreated cells.
# RNA was quantified by measuring Optical Density at 260 nm.
# [3] = test system: ATP Citrate Lyase (ACL); test: Western blot of ATP Citrate Lyase levels in cells treated with Coenzyme Q10; format: cell-based, human; conditions: for ATP Citrate Lysase band Normalized Intensity: 48 h
# Method: The whole cell pellets were resuspended one at a time in 1 mL of C7 buffer and transferred to labeled 15 mL tubes. The samples were then sonicated in the cold room on ice using 6 sonic pulses with the setting at #14. The samples were spun for a short time to 2500 g after sonication and the samples transferred to 2 ml tubes. The pH was verified of each sample (pH should be 9.0) using the foam remaining in the […] sample tubes.
# After transfer each of the blots was placed in between 2 Whatman Filter papers and dried for 15-20 minutes. After drying the blots were labeled with the date, the type of samples and either blot 1 or blot 2 using a HB pencil. The molecular weight markers were outlined with the pencil and with single lines for the blue and a doublet for the colored markers. The blots were activated with methanol for 5 seconds, washed with water for 5 minutes, and TBST for 15 minutes. The blots were blocked for 1 hour with 5% blocking reagent in TBS-T at room temperature and then washed 3 times with TBS-T (1×-15′; 2×5′ each). Blot 1 was probed with the primary antibody for IDH1 (Cell Signaling #3997) in TBST with 5% BSA (at 1:1000 dilutions) and blot 2 with the rabbit polyclonal antibody for ATP Citrate Lyase in 5% BSA (Cell Signaling #4332) at 1:1000 dilution by incubation overnight at 4 deg C. with shaking. After the overnight incubation with primary antibodies, the blots were washed 3 times with TBS-T (1×-15′; 2×5′ each) and probed with the secondary antibody (antirabbit; 1:10,000 dilution) for 1 hon the orbital tilting shaker at room temperature. After 1 h of incubation with secondary antibodies, the blots were washed 3 times with TBS-T (1×-15′; 2×5′ each) and then incubated with ECF reagent for 5 mins and then each blot scanned with 5100 Fuji Laser scanner at 25 uM resolution, 16 bit, green laser, at 400V and at 500 V.
# The samples were processed and run on a 4-12% Bis-Tris Novex NuPAGE gel as described above. The gels were run, transferred and stained essentially as described above.
# The Isocitrate dehydrogenase blot was stripped by incubating for 30 minutes with methanol, followed by two 10 minute washes with TBS-T, then 30 minutes of incubation with stripping buffer at 50 deg C., and followed by two washes with 100 ml or more of TBS-T for 30′ each. The blot was scanned in laser scanner to check for complete stripping. The blot was activated with methanol for 5 seconds, washed with water for 5 minutes, and TBST for 15 minutes. The blot was blocked for 1 hour with 5% blocking reagent in TBS-T at room temperature and then washed 3 times with TBS-T (1×-15′; 2×5′ each). This was then probed with the rabbit polyclonal antibody for ATP Citrate Lyase in 5% BSA (Cell Signaling #4332) at 1:1000 dilution overnight at 4 deg C. with shaking. After the overnight incubation with primary antibody for ATP Citrate Lyase, the membrane was washed 3 times with TBS-T (1×-15′; 2×5′ each) and probed with the secondary antibody (antirabbit; 1:10,000 dilution) for 1 h on the orbital tilting shaker at room temperature. After 1 h of incubation with secondary antibodies, the blot was washed 3 times with TBS-T (1×-15′; 2×5′ each) and then incubated with ECF reagent for 5 minutes and then each blot scanned with 5100 Fuji Laser scanner at 25 uM resolution, 16 bit, green laser, at 400V and at 500 V.
# In this experiment (western blot experiment 3), and in all of the experiments described below in this Example (i.e., western blot experiments 4 through 9), the cells were additionally treated with either 5 mM glucose (“5G”) or 22 mM glucose (“22G”). The samples derived from the cells were processed and run on a 4-12% Bis-Tris Novex NuPAGE gel as described above. The gels were run, transferred and stained essentially as described above.
# The levels of IDH1, ATP citrate lyase and actin levels were determined by probing the blots with primary antibodies for IDH1, ATP citrate lyase and actin, essentially as described above.
# [4] = test system: Bcl2; test: Bcl2 level after administration of CoQ-10 in the presence of VEGF; format: cell-based
# Excerpt: The term “Multidimensional Intracellular Molecule (MIM)”, is an isolated version or synthetically produced version of an endogenous molecule that is naturally produced by the body and/or is present in at least one cell of a human. A MIM is characterized by one or more, two or more, three or more, or all of the following functions. MIMs are capable of entering a cell, and the entry into the cell includes complete or partial entry into the cell, as long as the biologically active portion of the molecule wholly enters the cell. MIMs are capable of inducing a signal transduction and/or gene expression mechanism within a cell. MIMs are multidimensional in that the molecules have both a therapeutic and a carrier, e.g., drug delivery, effect. MIMs also are multidimensional in that the molecules act one way in a disease state and a different way in a normal state. […] Preferably, MIMs selectively act in cells of a disease state, and have substantially no effect in (matching) cells of a normal state. Preferably, MIMs selectively renders cells of a disease state closer in phenotype, metabolic state, genotype, mRNA/protein expression level, etc. to (matching) cells of a normal state.
smiles,measurement,setting,value
"COC1=C(OC)C(=O)C(C/C=C(\C)CC/C=C(\C)CC/C=C(\C)CC/C=C(\C)CC/C=C(\C)CC/C=C(\C)CC/C=C(\C)CC/C=C(\C)CC/C=C(\C)CCC=C(C)C)=C(C)C1=O [Q10, Coenzyme Q10]",apoptotic response of cancer vs control cell lines,[1],induction of apoptosis and cell death in the cancer cells only
same,Regulation (mRNA) at 6 hours,[2],Down regulated at 6
same,Regulation (mRNA) at 24 hours,[2]; gene BAX,Up regulated at 24 hours.
same,Regulation (mRNA) at 24 hours,[2]; gene BCL2L1,hours and then up
same,Regulation (mRNA) at 24 hours,[2]; gene BNIP3,Down regulated at 24
same,ATP Citrate Lysase band Normalized Intensity,"[3]; HASMC (Table 34), 5 g, 50 μM",23341
same,ATP Citrate Lysase band Normalized Intensity,"[3]; HASMC (Table 34), 5 g, 100 μM",25544
same,ATP Citrate Lysase band Normalized Intensity,"[3]; HASMC (Table 34), 22 G, 50 μM",21439
same,ATP Citrate Lysase band Normalized Intensity,"[3]; HASMC (Table 34), 22 G, 100 μM",19491
same,ATP Citrate Lysase band Normalized Intensity,"[3]; HASMC (Table 35), 5 g, 50 μM",12056
same,ATP Citrate Lysase band Normalized Intensity,"[3]; HASMC (Table 35), 5 g, 100 μM",15265
same,ATP Citrate Lysase band Normalized Intensity,"[3]; HASMC (Table 35), 22 G, 50 μM",15857
same,ATP Citrate Lysase band Normalized Intensity,"[3]; HASMC (Table 35), 22 G, 100 μM",13892
same,ATPCL Average Normalized Intensity,"[3]; HDFa, 50 μM",~7500
same,ATPCL Average Normalized Intensity,"[3]; HDFa, 100 μM",~25000
same,ATP Citrate Lysase band Normalized Intensity,"[3]; HepG2, 5 g, 50 μM",24106
same,ATP Citrate Lysase band Normalized Intensity,"[3]; HepG2, 5 g, 100 μM",22463
same,ATP Citrate Lysase band Normalized Intensity,"[3]; HepG2, 22 G, 50 μM",31235
same,ATP Citrate Lysase band Normalized Intensity,"[3]; HepG2, 22 G, 100 μM",50588
same,ATPCL Average Normalized Intensity,"[3]; MCF-7, 50 μM",~7500
same,ATP Citrate Lysase band Normalized Intensity,"[3]; PACA2, 5 g, 50 μM",8027
same,ATP Citrate Lysase band Normalized Intensity,"[3]; PACA2, 5 g, 100 μM",4942
same,ATP Citrate Lysase band Normalized Intensity,"[3]; PACA2, 22 G, 50 μM",9537
same,ATP Citrate Lysase band Normalized Intensity,"[3]; PACA2, 22 G, 100 μM",14901
same,level of Bcl2,"[4]; melanoma cell, in the presence of VEGF",decreased level of Bcl2
same,levels of Bcl2,"[4]; normal fibroblast, co-administration with VEGF",no effect
